# US6423718B1, “4,4-disubstituted-3,4-dihydro-2(1H)-quinazolinones useful as HIV reverse transcriptase inhibitors” (Bristol-Myers Squibb Pharma Company, priority 1997, dated 2002)
# Tested on: not given
# Assay: not given
# Conditions: not given
row,SMILES,melting point [°C]
1,"COc1ccc2c(c1)C(C#CC1CC1)(C(F)(F)F)NC(=O)N2 (racemic) [Example 6, (+/−)-4-Cyclopropylethynyl-6-methoxy-4-trifluoromethyl-3,4-dihydro-2(1H)-quinazolinone]",208
2,"CC(C)CCC1(C(F)(F)F)NC(=O)Nc2ccc(F)c(F)c21 (racemic) [Example 15, (+/−)-5,6-Difluoro-4-isopentyl-4-trifluoromethyl-3,4-dihydro-2(1H)-quinazolinone]",192 to 193
3,"O=C1Nc2ccc(F)cc2C(C#CC2CC2)(C(F)(F)F)N1 (racemic) [Example 17, (+/−)-4-Cyclopropylethynyl-6-fluoro-4-trifluoromethyl-3,4-dihydro-2(1H)-quinazolinone]",155
4,"CC(C)CCC1(C(F)(F)F)NC(=O)Nc2ccc(F)cc21 (racemic) [Example 22, (+/−)-6-Fluoro-4-isopentyl-4-trifluoromethyl-3,4-dihydro-2(1H)-quinazolinone]",179
5,"CCCCC1(C(F)(F)F)NC(=O)Nc2ccc(F)cc21 (racemic) [Example 24, (+/−)-4-Butyl-6-fluoro-4-trifluoromethyl-3,4-dihydro-2(1H)-quinazolinone]",198
6,"O=C1Nc2ccc(F)cc2C(CCc2ccccc2)(C(F)(F)F)N1 (racemic) [Example 25, (+/−)-6-Fluoro-4-phenylethyl-4-trifluoromethyl-3,4-dihydro-2(1H)-quinazolinone]",98

# Tested on: HIV-1 (RF)
# Assay: HIV RNA assay: microplate based compound evaluation in HIV-1 infected MT-2 cells (IC90)
# Format: cell-based
# Conditions: Human immunodeficiency virus 1, MT2, 72 h; HIV-1 (RF) infected MT-2 cells, 3 days of culture; virus dilutions selected to standardize the inoculum; read-out: IC90 value (concentration of compound required to reduce the HIV RNA level by 90%)
# Experimental: Plasmid pDAB 72 containing both gag and pol sequences of BH10 (bp 113-1816) cloned into PTZ 19R was prepared according to Erickson-Viitanen et al. AIDS Research and Human Retroviruses 1989, 5, 577. The plasmid was linearized with Ban HI prior to the generation of in vitro RNA transcripts using the Riboprobe Gemini system II kit (Promega) with T7 RNA polymerase. Synthesized RNA was purified by treatment with RNase free DNAse (Promega), phenol-chloroform extraction, and ethanol precipitation. RNA transcripts were dissolved in water, and stored at −70° C. The concentration of RNA was determined from the A260.
# Biotinylated capture probes were purified by HPLC after synthesis on an Applied Biosystems (Foster City, Calif.) DNA synthesizer by addition of biotin to the 5′ terminal end of the oligonucleotide, using the biotin-phosphoramidite reagent of Cocuzza, Tet. Lett. 1989, 30, 6287. […]
# MT-2 and MT-4 cells were maintained in RPMI 1640 supplemented with 5% fetal calf serum (FCS) for MT-2 cells or 10% FCS for MT-4 cells, 2 mM L-glutamine and 50 μg/mL gentamycin, all from Gibco. […] Infectious titers of HIV-1 (RF) stocks were 1-3×10^7 PFU (plaque forming units)/mL as measured by plaque assay on MT-2 cells (see below). […]
row,SMILES,IC90 [µg/mL]
1,"Nc1ccn([C@H]2CC[C@@H](CO)O2)c(=O)n1 [ddC, 2′,3′-dideoxycytidine]",0.2
